Results on 15 compounds are retold here after patent publication US9353075B2, “Disubstituted beta-lactones as inhibitors of N-acylethanolamine acid amidase (NAAA)” (The Regents of the University of California, priority 2011, dated 2016).

Some results are limits rather than exact numbers.

Usually IC50 stands for the point on the concentration scale where inhibition reaches its midpoint.

One test has as its target r-NAAA (Rattus norvegicus (Rat), UniProt Q5KTC7). Kind of test: r-NAAA inhibition, rat lung lysosomal NAAA preparation, UPLC/MS. In kind it is biochemical. How it is done:
Lysosomal NAAA protein preparation were obtained by homogenizing male Sprague-Dawley rat lungs (Charles River) in 20 mM Tris-HCl buffer pH 7.4 containing 0.32M sucrose. Samples were centrifuged at 800×g for 15 minutes at 4° C. Supernatants were then centrifuged at 12,000 g for 30 minutes at 4° C. Pellets were then resuspended in PBS pH 7.4 and subjected to a freeze/thaw cycle at −80° C. The suspension was finally centrifuged at 105,000×g for 1 hour at 4° C. The supernatant was then used in the enzymatic assay.
NAAA protein preparation was pre-incubated with various concentrations of test compounds or vehicle control in 100 mM NaH2PO4/Citrate buffer, 1% Triton-X, 3 mM DTT (pH 4.5) for 30 minutes at 37° C. Samples were then incubated with heptadecenoylethanolamide (50 μM, Avanti Polar Lipids) at 37° C. for 30 min. The reaction was terminated by addition of cold methanol containing heptadecanoic acid (NuCheck Prep) as internal standard. Samples were then analyzed by UPLC/MS (Acquity, Waters). Heptadecenoic and heptadecanoic acids were eluted on an Acquity UPLC BEH C18 column (50 mm length, 2.1 mm i.d., 1.7 μm pore size, Waters) isocratically at 0.5 mL/min for 1.5 min with a solvent mixture of 95% methanol and 5% water, both containing 0.25% Acetic Acid and 5 mM Ammonium Acetate. The column temperature was 40° C. Electrospray ionization was in the negative mode, capillary voltage was 0.5 kV, cone voltage was […], desolvation temperature was 500° C. N2 was used as drying gas at a flow rate of 1000 L/hour and a temperature of 500° C. The [M−H]^− ion was monitored in the selected-ion monitoring mode (m/z values: heptadecenoic acid 267.37, heptadecanoic acid 269.37). Calibration curves were generated using commercial heptadecenoic acid (NuCheck Prep). Inhibition of NAAA activity was calculated as reduction of heptadecenoic acid in the samples compared to vehicle controls. IC50 values were calculated by non-linear regression analysis of log [concentration]/inhibition curves using GraphPad Prism 5 (GraphPad Software Inc., CA—USA) applying a standard slope curve fitting.

The target of a further test is Acid Ceramidase (AC) (Rattus norvegicus (Rat), UniProt Q6P7S1). As to the kind of experiment: Acid ceramidase inhibition, recombinant rat AC, LC-MS. It counts as biochemical. The note with it: for inhibition at 0.3 µM: read-out: r-AC % inhib. @ 0.3 μM; for IC50: read-out: r-AC IC50; for inhibition at 10 µM: read-out: r-AC % inhib. @ 10 μM. As to the method:
The PCR (High Fidelity PCR Master, Roche) product was subcloned into a pEF6-[…] vector (Invitrogen) to construct a mammalian expression vector encoding […]-tagged rat AC. HEK293 cells were transfected with pEF6-rAC-[…] using Super-Fect reagent (Qiagen) and screened with G418 (0.3 mg/mL). Cells were suspended in 20 mM Tris HCl (pH 7.5) containing 0.32M sucrose, sonicated and centrifuged at 800×g for 15 minutes at 4° C. The supernatants were centrifuged again at 12,000×g for 30 minutes at 4° C. The pellets were suspended in phosphate-buffered saline (PBS) and subjected to 2 freeze-thaw cycles at -80° C. The suspensions were centrifuged at 105,000×g for 1 hour at 4° C. The supernatants containing recombinant AC were kept at -80° C. until use. Protein concentration was measured using the bicinchoninic acid (BCA) assay (Pierce). […] Reactions were stopped by addition of a mixture of chloroform/methanol (2:1, vol/vol) containing 1 nmol of heptadecanoic acid (HDA; NuChek Prep). […] HDA was eluted on an XDB Eclipse C18 column isocratically at 2.2 mL/min for 1 minute with a solvent mixture of 95% methanol and 5% water, both containing 0.25% acetic acid and 5 mM ammonium acetate. The column temperature was 50° C. Electrospray ionization (ESI) was in the negative mode, capillary voltage as 4 kV, and fragmentor voltage was 100 V. N2 was used as drying gas at a flow rate of 13 L/min and a temperature of 350° C. Nebulizer pressure was set at 60 psi. We monitored [M-H]- in the selected-ion monitoring (SIM) mode using HDA as internal standard. Calibration curves were generated using commercial lauric acid (Nu-Chek Prep; m/z=199).

In a further test the target is h-NAAA (Homo sapiens (Human), UniProt Q02083). As to the kind of experiment: UPLC/MS h-NAAA assay. In kind it is biochemical. As to the method: NAAA protein preparation (10 μg) was pre-incubated with various concentrations of test compound or vehicle control in 100 mM NaH2PO4, 100 mM Tri Sodium Citrate Dehydrate, 0.1% Triton-X 100, 3 mM DTT, pH 4.5 for 30 min at 37° C. Duplicate samples were then incubated with 50 μM C17:1 10-cis-heptadecenoylethanolamide (Avanti Polar Lipids, Alabaster, Ala.—USA) at 37° C. for 30 minutes. The reaction was terminated by the addition of 0.2 mL of cold methanol containing 1 nmol of heptadecanoic acid (NuChek Prep, Elysian, Minn.—USA) as internal standard. Samples were then analyzed by UPLC/MS. Heptadecenoic and heptadecanoic acids were eluted on an Acquity UPLC BEH C18 column (50 mm length, 2.1 mm i.d., 1.7 μm pore size, Waters) isocratically at 0.5 mL/min for 1.5 min with a solvent mixture of 95% methanol and 5% water, both containing 0.25% Acetic Acid and 5 mM Ammonium Acetate. The column temperature was 40° C. Electrospray ionization was in the negative mode, capillary voltage was 2.7 kV, cone voltage was 45 V, extractor voltage was 3 V. The source temperature was 150° C. with a desolvation temperature of 400° C. N2 was used as drying gas at a cone flow of 100 L/hour and a desolvation flow of […]. The [M−H]-ion was monitored in the selected-ion monitoring mode (m/z values: heptadecenoic acid 267.37, heptadecanoic acid 269.37). Calibration curves were generated using commercial heptadecenoic acid (NuCheck Prep) Inhibition of NAAA activity was calculated as reduction of heptadecenoic acid in the samples compared to vehicle controls. IC50 values were calculated by non-linear regression analysis of log [concentration]/inhibition curves using GraphPad Prism 5 (GraphPad Software Inc., CA—USA) applying a standard slope curve fitting.

A further test concerns DNFB-induced dermatitis. Kind of test: DNFB contact dermatitis in mice, ear thickness. Conditions: mice, PEG 400 solution, each day for 7 days; (S)-OOPP 0.1-10% w/v, compound 6 0.1%. It counts as in vivo, mouse. As to the method: 2,4-dinitrofluorobenzene (DNFB) (Sigma-Aldrich, Italy) was dissolved in acetone. On day 1 and 2, mice (CD1, 25-30 g, Charles River, Calco, Italy) were sensitized on the skin of the abdomen with hapten (20 μL of 0.5% DNFB). After 5 days, on day 7, mice were challenged with hapten (20 μL of 0.2% DNFB) in the earlobe and treated with drugs to be tested. Control group received the vehicle used to dissolve drugs. Mice (five per group) were placed in a plastic cage. On day 8, ear thickness was determined after challenge using a caliper. Results are expressed as absolute ear thickness.
Fresh drug suspensions of compound 6 were prepared immediately before use in a vehicle consisting of petrolatum plus 5% lauric acid and given in a volume of 20 μL/mouse. Mice were treated with different concentrations of compound 6 or vehicle together with DNFB challenge on […].
Compound 6 and the reported β-lactone NAAA inhibitor (S)-OOPP (Solorzano et al., Proceedings of the National Academy of Science USA 2009, 106, 20966-20971; Solorzano et al., Journal of Medicinal Chemistry 2010, 53, 5770-5781) were tested in this model for their contact sensitivity response. Fresh drug solutions of (S)-OOPP and compound 6 were prepared immediately before use in polyethylene glycol 400 (PEG 400) and given in a volume of 20 μL/ear. Mice were treated with different concentrations of (S)-OOPP, 0.1% compound 6 or vehicle each day for 7 days. Ear thickness was determined on day 0 and every day before challenge using a caliper. Results are expressed as absolute ear thickness.
The methods included the following. Dermatitis was produced in mice using 2-4 dinitrofluorobenzene (DNFB) as described by Buckley and Nijkamp (1994), Am J Respir Grit Care Med 149:400-7. Mice were sensitized on two consecutive days with a 0.5% DNFB solution applied to the shaved abdomen. At day 8, the ears were challenged with a 0.2% DNFB solution. Ear thickness was determined by using a micrometer. Scratching was evaluated as number of episodes per 60 minutes period. Data were analysed by ANOVA followed by the Bonferroni's test. See also Hargreaves K, et al (1988), Pain 32: 77-88 for related information.

Chain of h-NAAA (Q02083 29-359): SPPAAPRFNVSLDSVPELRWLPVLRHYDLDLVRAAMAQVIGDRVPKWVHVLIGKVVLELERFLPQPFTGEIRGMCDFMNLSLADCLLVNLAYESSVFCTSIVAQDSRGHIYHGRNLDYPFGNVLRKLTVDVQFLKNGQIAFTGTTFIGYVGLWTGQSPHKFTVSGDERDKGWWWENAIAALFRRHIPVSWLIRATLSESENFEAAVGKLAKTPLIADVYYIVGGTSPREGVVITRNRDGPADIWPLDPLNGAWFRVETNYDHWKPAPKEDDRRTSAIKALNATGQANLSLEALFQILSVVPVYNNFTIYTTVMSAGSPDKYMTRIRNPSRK
Chain of r-NAAA (Q5KTC7 34-362): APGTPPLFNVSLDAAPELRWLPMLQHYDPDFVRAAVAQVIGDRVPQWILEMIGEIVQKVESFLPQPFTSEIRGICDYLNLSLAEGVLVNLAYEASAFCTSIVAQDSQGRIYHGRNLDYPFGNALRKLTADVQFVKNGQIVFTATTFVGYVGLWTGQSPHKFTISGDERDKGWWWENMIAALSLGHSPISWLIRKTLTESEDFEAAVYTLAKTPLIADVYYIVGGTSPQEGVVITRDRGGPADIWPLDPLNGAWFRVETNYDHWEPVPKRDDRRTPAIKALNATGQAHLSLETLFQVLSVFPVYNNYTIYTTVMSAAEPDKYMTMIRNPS
Chain of Acid Ceramidase (AC) (Q6P7S1 21-394): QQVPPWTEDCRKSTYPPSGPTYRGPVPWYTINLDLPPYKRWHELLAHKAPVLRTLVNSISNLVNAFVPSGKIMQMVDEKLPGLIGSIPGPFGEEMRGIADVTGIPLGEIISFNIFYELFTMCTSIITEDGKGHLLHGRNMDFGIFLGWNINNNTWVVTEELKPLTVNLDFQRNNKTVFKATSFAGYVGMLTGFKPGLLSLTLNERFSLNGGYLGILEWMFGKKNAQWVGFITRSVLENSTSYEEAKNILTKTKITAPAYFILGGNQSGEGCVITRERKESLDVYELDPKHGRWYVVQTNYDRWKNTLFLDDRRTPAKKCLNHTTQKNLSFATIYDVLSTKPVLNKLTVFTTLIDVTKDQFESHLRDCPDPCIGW

Turning to `C[C@@H]1OC(=O)[C@@H]1NC(=O)OCCCCc1ccccc1` [Example 5, 4-phenylbutyl-[(2S,3R)-2-methyl-4-oxooxetan-3-yl]-carbamate], the IC50 at r-NAAA came to 390 nM. Besides, on Acid Ceramidase (AC), the inhibition at 0.3 µM is less than 10%.
Turning to `O=C(N[C@H]1COC1=O)OCCCCCc1ccccc1` [drawing 83, reference compound], the IC50 came to 6850 nM against r-NAAA and 1530 nM at Acid Ceramidase (AC).
For `C[C@@H]1OC(=O)[C@@H]1NC(=O)OCCCOCc1ccccc1` [Example 18, 3-Benzyloxypropyl-N-[(2S,3R)-2-methyl-4-oxo-oxetan-3-yl]-carbamate], the figures for the IC50 at r-NAAA and against h-NAAA were 50 nM and 18 nM, respectively. In addition, the inhibition at 10 µM at Acid Ceramidase (AC) is less than 10%.
As to `C[C@@H]1OC(=O)[C@@H]1NC(=O)OCCCCCC1CCCCC1` [Example 35, 5-Cyclohexylpentyl-N-[(2S,3R)-2-methyl-4-oxo-oxetan-3-yl]-carbamate], the IC50 against r-NAAA turned out to be 16 nM; against h-NAAA, 5 nM. Also, the inhibition at 10 µM at Acid Ceramidase (AC) is less than 10%.
In the case of `O=C(N[C@@H]1COC1=O)OCCCCCc1ccccc1` [reference compound], the results for the IC50 at r-NAAA and at Acid Ceramidase (AC) were 510 nM and 30000 ± 2500 nM, respectively.
As to `C[C@@H]1OC(=O)[C@@H]1NC(=O)OC12CC3CC(CC(C3)C1)C2` [Example 12, Tricyclo[3.3.1.1^3,7]dec-1-yl [(2S,3R)-2-methyl-4-oxooxetan-3-yl]-carbamate], the results for the half-maximal inhibitory concentration (IC50) at r-NAAA and against h-NAAA were 870 nM and 540 nM, respectively.
Regarding `O=C(CCc1ccccc1)N[C@H]1COC1=O` [(S)-OOPP, N-[(3S)-2-oxo-3-oxetanyl]-3-phenylpropanamide, reference compound], the “Contact sensitivity response (ear swelling)” value with DNFB-induced dermatitis is listed as “did not inhibit contact sensitivity response”.
Turning to `C[C@@H]1OC(=O)[C@@H]1NC(=O)OCc1ccc(-c2ccccc2)cc1` [Example 17, (4-phenylphenyl)methyl-N-[(2S,3R)-2-methyl-4-oxo-oxetan-3-yl]-carbamate], the IC50 on r-NAAA and against h-NAAA was 7 nM throughout. Also, the inhibition at 10 µM at Acid Ceramidase (AC) amounted to 30%.
Consider `C[C@@H]1OC(=O)[C@H]1NC(=O)OCCCCCc1ccccc1` [Example 32, 5-Phenylpentyl-N-[(2S,3S)-2-methyl-4-oxo-oxetan-3-yl]-carbamate], for which the IC50 worked out at 480 nM against r-NAAA and 3800 nM on Acid Ceramidase (AC).
As for `CCCCCCC[C@H](C)OC(=O)N[C@H]1C(=O)O[C@H]1C` [Example 7, [(1S)-1-methyloctyl]-N-[(2S,3R)-2-methyl-4-oxo-oxetan-3-yl]-carbamate], the IC50 on r-NAAA amounted to 16 nM; against h-NAAA it was 5 nM. The inhibition at 10 µM at Acid Ceramidase (AC) was found to be 45%.
In turn, `CCCCCCCCOC(=O)N[C@H]1C(=O)O[C@H]1C` [Example 2, Octyl-[(2S,3R)-2-methyl-4-oxooxetan-3-yl]-carbamate] came in with an IC50 on r-NAAA of 30 nM. Also, at Acid Ceramidase (AC), the inhibition at 0.3 µM was less than 10%.
At r-NAAA, `C[C@@H]1OC(=O)[C@@H]1NC(=O)OC(C)(C)CCCCc1ccccc1` [Example 25, (1,1-Dimethyl-5-phenyl-pentyl)-N-[(2S,3R)-2-methyl-4-oxo-oxetan-3-yl]-carbamate] returned an IC50 of 310 nM. For the same compound, at Acid Ceramidase (AC), the inhibition at 0.3 µM is less than 10%.
For the compound `CC(CCCCc1ccccc1)OC(=O)N[C@H]1C(=O)O[C@H]1C` (mixture of isomers) [Example 22, [(1R) and (1S)-1-methyl-5-phenyl-pentyl]-N-[(2S,3R)-2-methyl-4-oxo-oxetan-3-yl]-carbamate], the IC50 against r-NAAA is 30 nM; on h-NAAA, 14 nM. Moreover, at Acid Ceramidase (AC), the inhibition at 0.3 µM is less than 10%.
The compound `C[C@@H]1OC(=O)[C@@H]1NC(=O)OC1CCC(Cc2ccccc2)CC1` (mixture of isomers) [Example 30, (1s,4S) and (1r, 4R)-(4-Benzylcyclohexyl)-N-[(2S,3R)-2-methyl-4-oxooxetan-3-yl]-carbamate] had an IC50 at r-NAAA of 310 nM.
As for `CC[C@H]1OC(=O)[C@@H]1NC(=O)OCc1ccc(-c2ccccc2)cc1` (relative stereo) [Example 48, (4-Phenylphenyl)-methyl-N-[(2R*,3R*)-2-ethyl-4-oxo-oxetan-3-yl]-carbamate], the inhibition at 3 µM at r-NAAA (read-out: r-NAAA % inhib. @ 3 μM) came out at 100%.
